In US4740233A, “Substituted 1,2,4-triazolo[1,5-a]-pyrimidine-2-sulfonamides and compositions and methods of controlling undesired vegetation and suppressing the nitrification of ammonium nitrogen in soil” (The Dow Chemical Company, priority 1986, dated 1988):

Test system: annual sugar beet variety (SLC03)
Test: Plant growth regulator activity, preemergence
Format: in vivo
Conditions: for observed effect (preemergence): 400 ppm; for minimal effective concentration: Beta vulgaris, pre-emergence, 6-7 weeks, read-out: Bolting Inhibition (preemergence), concentration with observed effect
Source text: Using a regular biennial variety, even a bolting-susceptible variety would require a cold treatment of around 10-16 weeks plus a hormone treatement in conjunction with specific light intensities. Thus, for a screening organism, we selected one which would consistently produce bolting on a regular schedule. The screen is run with an annual sugar beet variety (SLC03) provided by Dr. Richard J. Hecker, Fort Collins, Colo. This variety is an inbred which bolts in the 6- to 8-leaf stage without any need for vernalization. This allows the screen to be run entirely in the greenhouse with all 110 chemical compounds tested on one tray. The sugarbeets are grown in 3×3 inch square pots in a greenhouse sandy loam potting mix. The sugarbeets are sprayed with test compounds when they are 2 to 3 weeks old (2 true leaves). The compounds are dissolved in acetone and diluted with water containing Tween 20 as a wetting agent. The concentration of acetone in the final spray is 20% and the concentration of Tween 20 is 0.05 percent. The plants are examined for the appearance of a bolt 4 weeks after spraying.
Preemergence tests are conducted by spraying formulated chemical on seeds placed on potting soil. The sprayed seeds are then covered with 1/4 inch of potting soil and the pots are watered. Bolting is evaluated 6-7 weeks after the initiation of the test. At this time untreated plants have a vigorous bolting stem with visible flowers.

Row | SMILES | observed effect (preemergence) | minimal effective concentration [µg/mL]
1 | CSc1cccc(NS(=O)(=O)c2nc3ncc(Cl)cn3n2)c1 [Compound 134] | stunting | 400
2 | O=S(=O)(Nc1ccccc1F)c1nc2ncc(Cl)cn2n1 [Compound 133] | stunting | 400
3 | CCN(C)S(=O)(=O)c1ccccc1NS(=O)(=O)c1nc2ncc(Cl)cn2n1 [Compound 132] | – | 400
